We go through one molecule from patent US9062051B2, “Compounds and pharmaceutical compositions thereof for the treatment of proliferative disorders” (GALAPAGOS NV, priority 2014, dated 2015).

The term IC50 denotes the concentration that inhibits the measured activity by half. As a reminder, the AUC is the area under the concentration-time curve, a measure of exposure. A lower AUC goes with low exposure.

One data set concerns the target T1, EphB4 (UniProt Ref: Q541P7) (Homo sapiens, UniProt P54760).
T1 construct: purchased Reaction Biology
T1 sequence (P54760 16-987): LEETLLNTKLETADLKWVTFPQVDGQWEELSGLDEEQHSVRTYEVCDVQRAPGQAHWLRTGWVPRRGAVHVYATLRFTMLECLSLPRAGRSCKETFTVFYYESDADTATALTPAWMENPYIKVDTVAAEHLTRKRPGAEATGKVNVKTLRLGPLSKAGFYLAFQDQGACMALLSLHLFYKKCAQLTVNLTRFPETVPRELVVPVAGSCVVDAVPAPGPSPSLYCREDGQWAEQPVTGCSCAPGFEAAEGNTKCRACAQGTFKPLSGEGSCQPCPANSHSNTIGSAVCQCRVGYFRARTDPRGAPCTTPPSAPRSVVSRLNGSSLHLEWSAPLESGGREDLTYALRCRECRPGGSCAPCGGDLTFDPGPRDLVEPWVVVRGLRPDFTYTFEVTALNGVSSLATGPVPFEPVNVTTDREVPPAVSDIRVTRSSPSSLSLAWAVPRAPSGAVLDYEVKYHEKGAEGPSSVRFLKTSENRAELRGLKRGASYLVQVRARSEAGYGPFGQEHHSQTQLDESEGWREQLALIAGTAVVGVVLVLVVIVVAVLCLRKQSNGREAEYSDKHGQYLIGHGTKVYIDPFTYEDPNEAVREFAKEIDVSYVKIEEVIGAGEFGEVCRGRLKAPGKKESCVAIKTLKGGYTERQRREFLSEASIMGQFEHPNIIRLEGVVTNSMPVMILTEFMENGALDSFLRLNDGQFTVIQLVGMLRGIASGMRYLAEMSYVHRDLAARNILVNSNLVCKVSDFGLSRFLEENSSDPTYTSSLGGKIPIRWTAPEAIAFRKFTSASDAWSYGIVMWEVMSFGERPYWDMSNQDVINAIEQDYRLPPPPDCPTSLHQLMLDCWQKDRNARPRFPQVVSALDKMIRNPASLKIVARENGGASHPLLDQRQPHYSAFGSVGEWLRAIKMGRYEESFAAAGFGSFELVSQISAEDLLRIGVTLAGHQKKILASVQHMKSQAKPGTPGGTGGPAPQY
As to the kind of experiment: EphB4 assay (Reaction Biology HotSpot radioactive kinase assay). Format: biochemical. The note with it: ATP 10 μM; read-out: EphB4 potency IC50.

Data set [1] is described as follows: Pharmacokinetics in rats (exposure, AUC). The class given is in vivo, male Sprague Dawley rats. The note with it: 5 mg/kg, po. On the procedure:
This study is performed with 6 naïve male Sprague Dawley rats (180-200 g, 6-8 weeks old). Rats are obtained from Janvier, Le Genest St Isle, France.
A controlled environment is maintained in the room with optimal conditions of approximately 15 air changes per hour, a temperature of 22±2 C, a relative humidity of 30-70% and a 12 hour light/dark cycle
Pelleted diet for rodents (UAR A04C-10) is used and is provided ad libitum. Before p.o. dosing, the animals are deprived of food for at least 12 hours before compound administration and 4 hours after administration. All animals had free access to tap water.
Two days before the dosing day, the implantation of a catheter in the jugular vein is done under gaseous anaesthesia with isoflurane.
Rats are dosed intravenously with test compound via a bolus in the tail vein with a dose level of 1 mg/kg. […]
The i.v. bolus and the oral administration are given a dose volume of 5 mL/kg.
From all animals approximately 200 μL blood samples are collected via the catheter and placed into tubes containing Li-heparin as anticoagulant. Blood samples are collected at the various time points (i.v.: 0.05, 0.25, 0.5, 1, 3, 5, 8 and 24 hours after dosing; p.o.: 0.25, 0.5, 1, 3, 5, 8 and 24 hours after dosing).
Blood is kept on ice. Within 1 hour after sampling, blood is centrifuged at 5,000 rpm for 10 min at 4° C. Immediately after centrifugation, the resulting plasma samples are collected into polypropylene tubes and are kept frozen at −20° C. pending bioanalysis.
Plasma samples are assayed by LC-MS/MS. Plasma proteins are precipitated with an excess of methanol containing the internal standard and the corresponding supernatant is injected on a C18 column. Analytes are eluted out the HPLC system by increasing the percentage of the organic mobile phase. An API4000 mass spectrometer (AB Sciex™) is used for the detection and quantification.
Pharmacokinetic parameters are calculated by non-compartmental analysis using WinNonlin® software (Pharsight, version 5.2).

For a further data set, the target named is T2, EphA2 (UniProt Ref: P29317) (Homo sapiens, UniProt P29317).
T2 construct: purchased Reaction Biology
T2 sequence (P29317 24-976): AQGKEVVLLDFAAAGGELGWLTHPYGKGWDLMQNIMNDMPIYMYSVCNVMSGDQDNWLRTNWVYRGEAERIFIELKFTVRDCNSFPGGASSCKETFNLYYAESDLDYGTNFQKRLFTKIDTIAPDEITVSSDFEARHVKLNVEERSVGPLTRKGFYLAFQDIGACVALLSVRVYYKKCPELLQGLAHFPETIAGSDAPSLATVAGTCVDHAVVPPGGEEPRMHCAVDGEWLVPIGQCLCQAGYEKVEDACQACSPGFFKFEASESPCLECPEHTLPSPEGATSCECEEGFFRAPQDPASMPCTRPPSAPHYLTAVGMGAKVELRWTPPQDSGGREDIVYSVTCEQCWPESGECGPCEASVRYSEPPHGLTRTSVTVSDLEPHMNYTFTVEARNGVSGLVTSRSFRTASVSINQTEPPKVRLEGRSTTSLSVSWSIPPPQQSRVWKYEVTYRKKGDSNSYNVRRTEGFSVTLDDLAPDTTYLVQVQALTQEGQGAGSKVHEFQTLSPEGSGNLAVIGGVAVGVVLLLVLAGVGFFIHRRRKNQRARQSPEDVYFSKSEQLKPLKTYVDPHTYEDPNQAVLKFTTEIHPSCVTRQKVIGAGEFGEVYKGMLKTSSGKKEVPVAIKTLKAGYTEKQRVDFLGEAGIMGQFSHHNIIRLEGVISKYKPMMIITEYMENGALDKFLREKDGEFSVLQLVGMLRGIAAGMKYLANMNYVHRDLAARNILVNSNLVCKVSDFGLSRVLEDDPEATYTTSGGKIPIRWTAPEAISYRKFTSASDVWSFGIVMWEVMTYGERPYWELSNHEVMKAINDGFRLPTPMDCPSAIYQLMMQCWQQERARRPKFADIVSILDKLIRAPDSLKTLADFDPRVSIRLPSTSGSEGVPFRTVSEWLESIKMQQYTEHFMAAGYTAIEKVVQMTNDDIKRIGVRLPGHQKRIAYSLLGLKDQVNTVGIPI
As to the kind of experiment: EphA2 assay (Reaction Biology HotSpot radioactive kinase assay). The class given is biochemical. The note with it: ATP 10 μM; read-out: EphA2 potency IC50. In outline: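 Radiometric HotSpot assay measuring ^33P incorporation from [^33P]-γ-ATP into poly[Glu:Tyr] (4:1) (0.2 mg/mL) with 10 μM ATP. IC50 from serial 1/3 dilutions starting at 10 or 3 μM.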

Regarding `Cc1ccc(NC(=O)c2cccc(C(F)(F)F)c2)cc1-c1ccc2c(C(O)CN3CCOCC3)n[nH]c2n1` (stereo not shown) [Compound 2, N-{3-[3-(1-Hydroxy-2-morpholin-4-yl-ethyl)-1H-pyrazolo[3,4-b]pyridin-6-yl]-4-methyl-phenyl}-3-trifluoromethyl-benzamide], the 50% inhibitory concentration (IC50) on EphB4 lay in the range of 0.01 to 25 nM; on EphA2, 50 to 100 nM. Also, in data set [1], the “Exposure AUC” value amounted to 659 ng·h/mL. Further, in data set [1] (male, Sprague Dawley, rat, plasma), the AUC turned out to be 852 ng·h/mL.
